# Assay results from ChEMBL document CHEMBL1138964, “Synthesis and efficacy of 1-[bis(4-fluorophenyl)-methyl]piperazine derivatives for acetylcholinesterase inhibition, as a stimulant of central cholinergic neurotransmission in Alzheimer's disease” (Bioorg Med Chem Lett, 2006).
# pIC50: −log10 of the molar value.
# Legend:
# [1] = target: T1, Acetylcholinesterase (Rattus norvegicus, UniProt P37136); experiment: Inhibition of rat brain homogenate AchE; conditions: for pIC50: read-out: IC50
# T1 sequence (P37136 whole entry): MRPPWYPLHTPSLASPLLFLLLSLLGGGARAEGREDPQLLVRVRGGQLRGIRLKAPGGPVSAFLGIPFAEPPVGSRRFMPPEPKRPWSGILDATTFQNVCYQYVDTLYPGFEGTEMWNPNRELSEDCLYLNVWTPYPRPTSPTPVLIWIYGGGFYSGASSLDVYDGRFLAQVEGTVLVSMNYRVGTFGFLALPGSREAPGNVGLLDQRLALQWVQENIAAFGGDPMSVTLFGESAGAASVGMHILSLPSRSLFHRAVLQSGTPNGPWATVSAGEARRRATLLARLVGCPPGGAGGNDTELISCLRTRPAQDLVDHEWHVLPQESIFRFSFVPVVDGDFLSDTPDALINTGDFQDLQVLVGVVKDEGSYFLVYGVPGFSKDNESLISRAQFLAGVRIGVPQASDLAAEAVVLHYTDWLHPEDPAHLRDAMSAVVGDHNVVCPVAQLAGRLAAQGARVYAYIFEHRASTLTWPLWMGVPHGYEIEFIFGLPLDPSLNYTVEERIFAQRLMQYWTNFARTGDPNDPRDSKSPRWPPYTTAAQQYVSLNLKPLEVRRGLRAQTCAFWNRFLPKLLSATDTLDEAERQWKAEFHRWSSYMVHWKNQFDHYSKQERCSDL
# [2] = target: Acetylcholinesterase (Homo sapiens, UniProt P22303); experiment: Inhibition of human serum AchE
# [3] = target: Acetylcholinesterase (Electrophorus electricus, UniProt O42275); experiment: Inhibition of electric eel AchE
# [4] = test system: Rattus norvegicus; experiment: Antiamnesic effect against scopolamine-induced memory loss in passive avoidance step-down task paradigm in rat assessed as number of mistakes at 0.1 mg/kg, ip; type: functional; conditions: route intraperitoneal
# [5] = test system: Rattus norvegicus; experiment: Antiamnesic effect in passive avoidance step-down task paradigm in rat assessed as number of mistakes at 0.4 mg/kg, ip; type: functional; conditions: route intraperitoneal
# Sequence of Acetylcholinesterase (Homo sapiens, UniProt P22303) (P22303 whole entry): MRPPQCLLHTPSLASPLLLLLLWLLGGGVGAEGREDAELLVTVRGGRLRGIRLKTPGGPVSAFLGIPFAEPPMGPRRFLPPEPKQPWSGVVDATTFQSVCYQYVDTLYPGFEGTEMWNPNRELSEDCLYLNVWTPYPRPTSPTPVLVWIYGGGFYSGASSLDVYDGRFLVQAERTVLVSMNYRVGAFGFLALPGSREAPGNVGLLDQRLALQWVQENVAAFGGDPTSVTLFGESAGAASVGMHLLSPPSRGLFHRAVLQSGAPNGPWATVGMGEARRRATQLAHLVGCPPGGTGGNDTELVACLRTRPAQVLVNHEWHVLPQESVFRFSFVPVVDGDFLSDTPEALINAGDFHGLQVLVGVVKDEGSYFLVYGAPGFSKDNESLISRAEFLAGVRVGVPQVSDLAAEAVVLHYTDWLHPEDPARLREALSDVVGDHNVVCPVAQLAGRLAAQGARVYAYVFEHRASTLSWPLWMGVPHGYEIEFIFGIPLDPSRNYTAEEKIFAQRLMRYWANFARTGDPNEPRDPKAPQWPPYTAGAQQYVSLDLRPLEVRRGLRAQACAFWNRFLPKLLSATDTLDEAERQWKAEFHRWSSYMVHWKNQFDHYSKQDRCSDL
# Sequence of Acetylcholinesterase (Electrophorus electricus, UniProt O42275) (O42275 whole entry): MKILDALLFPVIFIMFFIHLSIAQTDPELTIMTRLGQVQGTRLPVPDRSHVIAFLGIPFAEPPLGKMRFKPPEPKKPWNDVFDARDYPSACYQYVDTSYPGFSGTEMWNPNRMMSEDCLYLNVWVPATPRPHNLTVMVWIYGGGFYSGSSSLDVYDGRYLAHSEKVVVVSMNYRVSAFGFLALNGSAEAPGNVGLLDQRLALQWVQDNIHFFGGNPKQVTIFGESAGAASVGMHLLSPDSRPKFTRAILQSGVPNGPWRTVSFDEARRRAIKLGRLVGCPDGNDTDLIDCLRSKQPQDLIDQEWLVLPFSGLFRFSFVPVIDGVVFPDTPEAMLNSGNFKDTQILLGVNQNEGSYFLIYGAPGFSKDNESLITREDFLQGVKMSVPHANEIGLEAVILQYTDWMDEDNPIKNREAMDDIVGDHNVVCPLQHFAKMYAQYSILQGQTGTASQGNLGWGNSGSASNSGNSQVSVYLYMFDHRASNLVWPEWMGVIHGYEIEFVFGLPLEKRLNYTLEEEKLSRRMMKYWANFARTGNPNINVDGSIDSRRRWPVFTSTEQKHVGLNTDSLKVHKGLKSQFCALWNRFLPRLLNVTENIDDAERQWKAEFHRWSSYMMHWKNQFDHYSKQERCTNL
structure (smiles),measurement,setting,value
COc1cc(Br)c(CN2CCN(C(c3ccc(F)cc3)c3ccc(F)cc3)CC2)cc1OC,IC50,[1],Not Active
same,pIC50,[2],5.99
same,pIC50,[3],6.15
same,Activity,[4],34
Fc1ccc(C(c2ccc(F)cc2)N2CCN(CCN3CCCC3)CC2)cc1,pIC50,[1],7.73
same,pIC50,[2],7.68
same,pIC50,[3],7.75
same,Activity,[4],10
N#Cc1ccccc1-c1ccc(CN2CCN(C(c3ccc(F)cc3)c3ccc(F)cc3)CC2)cc1,pIC50,[1],7.43
same,pIC50,[2],7.13
same,pIC50,[3],7.15
same,Activity,[4],11
CC1=C(CCN2CCN(C(c3ccc(F)cc3)c3ccc(F)cc3)CC2)C(=O)C2CCCCC2=N1 (stereo not given),IC50,[1],Not Active
same,pIC50,[2],5.97
same,pIC50,[3],5.92
same,Activity,[4],34
Cc1nc2ccccn2c(=O)c1CCN1CCN(C(c2ccc(F)cc2)c2ccc(F)cc2)CC1,IC50,[1],Not Active
same,pIC50,[2],5.49
same,pIC50,[3],5.67
same,Activity,[4],32
Cc1cc2c(cc1CN1CCN(C(c3ccc(F)cc3)c3ccc(F)cc3)CC1)OCO2,IC50,[1],Not Active
same,pIC50,[2],5.87
same,pIC50,[3],5.94
same,Activity,[4],33
CN1[C@@H]2C[C@@H](OC(=O)[C@H](CO)c3ccccc3)C[C@H]1[C@@H]1O[C@@H]12 [SCOPOLAMINE],Activity,[5],35
Fc1ccc(C(c2ccc(F)cc2)N2CCN(CCN3CCOCC3)CC2)cc1,pIC50,[1],6.70
same,pIC50,[2],6.55
same,pIC50,[3],6.60
same,Activity,[4],16
CN(C)C(=O)Oc1cccc([N+](C)(C)C)c1 [NEOSTIGMINE METHYLSULFATE],pIC50,[1],7.43
same,pIC50,[3],4.39
Fc1ccc(C(c2ccc(F)cc2)N2CCN(CCN3CCCCC3)CC2)cc1,pIC50,[1],7.03
same,pIC50,[2],6.90
same,pIC50,[3],6.87
same,Activity,[4],12
